Measured values as given in patent US20250179103A1, “6-OXODECAHYDROPYRROLO[1,2-A][1,5]DIAZOCINE AND 6-OXODECAHYDRO-4H-PYRROLO[2,1-D][1,5]THIAZOCINE DERIVATIVES AS STAT3 AND STAT6 MODULATORS FOR THE TREATMENT OF CANCER AND INFLAMMATORY CONDITIONS” (Recludix Pharma, Inc., priority 2022, published 2025).

Tests used:
[1] = target: T1, Recombinant STAT6 protein (STAT6(W123-T658)) (Homo sapiens, UniProt P42226); test: STAT6 Fluorescence Polarization (FP) Assay; format: binding; details: STAT6(W123-T658) 250 nM, probe 5-FAM-ApYKPFQDLI-NH2 2 nM, 45-minute incubation
T1 construct: Recombinant STAT6 protein (STAT6(W123-T658))
T1 sequence (P42226 123-658): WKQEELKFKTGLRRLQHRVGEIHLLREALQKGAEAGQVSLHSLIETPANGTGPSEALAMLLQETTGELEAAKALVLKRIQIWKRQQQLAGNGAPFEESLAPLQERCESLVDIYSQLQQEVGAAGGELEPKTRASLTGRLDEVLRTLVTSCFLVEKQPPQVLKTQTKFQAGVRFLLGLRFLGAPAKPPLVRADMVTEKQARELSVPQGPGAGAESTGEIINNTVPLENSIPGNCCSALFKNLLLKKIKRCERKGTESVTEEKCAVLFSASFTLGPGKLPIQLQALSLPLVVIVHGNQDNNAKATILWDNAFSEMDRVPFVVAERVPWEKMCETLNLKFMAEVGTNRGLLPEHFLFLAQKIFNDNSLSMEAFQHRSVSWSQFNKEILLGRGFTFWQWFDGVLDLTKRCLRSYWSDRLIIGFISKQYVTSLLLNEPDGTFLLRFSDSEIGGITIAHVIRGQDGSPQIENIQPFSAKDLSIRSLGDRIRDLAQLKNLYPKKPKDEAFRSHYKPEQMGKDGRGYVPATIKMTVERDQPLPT
How it was run: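 Displacement of a fluorescent phosphotyrosine peptide (5-FAM-ApYKPFQDLI-NH2, 2 nM) from STAT6(W123-T658) (250 nM), 1% DMSO, pH 7.4 HEPES buffer. After 45 min at room temperature, polarization (mP) was plotted versus log compound concentration and fitted by nonlinear regression to give IC50.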

[2] = target: T2, Recombinant STAT3 protein (STAT3(G127-I722)) (Homo sapiens, UniProt P40763); test: STAT3 Fluorescence Polarization (FP) Assay; format: binding; details: STAT3(G127-I722) 25 nM, probe 5-FAM-GpYLPQTV-NH2 2 nM, 45-minute incubation
T2 construct: Recombinant STAT3 protein (STAT3(G127-I722))
T2 sequence (P40763 127-722): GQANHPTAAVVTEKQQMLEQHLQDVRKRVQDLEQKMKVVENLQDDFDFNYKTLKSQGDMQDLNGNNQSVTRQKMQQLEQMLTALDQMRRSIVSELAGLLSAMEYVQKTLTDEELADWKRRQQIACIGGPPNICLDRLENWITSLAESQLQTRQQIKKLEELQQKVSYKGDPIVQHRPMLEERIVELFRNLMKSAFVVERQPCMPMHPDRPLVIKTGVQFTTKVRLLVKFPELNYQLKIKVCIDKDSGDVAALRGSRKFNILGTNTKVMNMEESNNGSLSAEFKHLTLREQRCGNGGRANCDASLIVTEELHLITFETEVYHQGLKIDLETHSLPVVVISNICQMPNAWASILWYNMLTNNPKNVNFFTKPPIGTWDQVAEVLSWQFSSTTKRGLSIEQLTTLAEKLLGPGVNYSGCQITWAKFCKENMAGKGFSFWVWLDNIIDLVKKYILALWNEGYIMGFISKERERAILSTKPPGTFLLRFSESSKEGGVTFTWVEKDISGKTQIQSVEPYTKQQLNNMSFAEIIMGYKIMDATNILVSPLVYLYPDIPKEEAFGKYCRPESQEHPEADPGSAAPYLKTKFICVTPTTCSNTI
How it was run: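 STAT3(G127-I722), 25 nM, was mixed with 2 nM 5-FAM-GpYLPQTV-NH2 probe in HEPES pH 7.4 buffer with 1% DMSO and serially diluted compound. FP (mP) was read after 45 min at room temperature. IC50 came from nonlinear regression.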

| IC50 [1] [nM] | IC50 [2] [nM] | Compound |
| --- | --- | --- |
| 300 to 3000 | > 10000 | CC(=O)N1CC[C@H]2CC[C@@H](C(=O)N(C)c3ccccc3)N2C(=O)[C@@H](NC(=O)c2nc3cc(C(F)(F)P(=O)(O)O)ccc3s2)C1 [Compound 115, ((2-(((5S,8S,10aR)-3-acetyl-8-(methyl(phenyl)carbamoyl)-6-oxodecahydropyrrolo[1,2-a][1,5]diazocin-5-yl)carbamoyl)benzo[d]thiazol-5-yl)difluoromethyl)phosphonic acid] |
| ≤ 300 | 1000 to 10000 | N#C[C@H]1CN(C(=O)[C@@H]2CC[C@@H]3CN(C4CCC4)CC[C@H](NC(=O)c4ccc5ccc(C(F)(F)P(=O)(O)O)cc5c4)C(=O)N32)C[C@@H]1c1ccccc1 (relative stereo) [Compound 228, ((7-(((5S,8S,10aR)-8-((rel-trans)-3-cyano-4-phenylpyrrolidine-1-carbonyl)-2-cyclobutyl-6-oxodecahydropyrrolo[1,2-a][1,4]diazocin-5-yl)carbamoyl)naphthalen-2-yl)difluoromethyl)phosphonic acid] |
| ≤ 300 | > 10000 | Cc1ccc2onc(C(=O)N3CC[C@H]4CC[C@@H](C(=O)N5C[C@@H](c6ccn(C)c(=O)c6)CC56CC6)N4C(=O)[C@@H](NC(=O)c4ccc5ccc([C@@H](F)P(=O)(O)O)cc5c4)C3)c2c1 [Compound 380, ((S)-fluoro(7-(((5S,8S, 10aR)-8-((R)-6-(1-methyl-2-oxo-1,2-dihydropyridin-4-yl)-4-azaspiro[2.4]heptane-4-carbonyl)-3-(5-methylbenzo[d]isoxazole-3-carbonyl)-6-oxodecahydropyrrolo [1,2-a][1,5]diazocin-5-yl)carbamoyl)naphthalen-2-yl)methyl)phosphonic acid] |
| 300 to 3000 | 1000 to 10000 | CC(=O)N1CC[C@H]2CC[C@@H](C(=O)N(C)c3ccc(C#N)cc3)N2C(=O)[C@@H](NC(=O)c2cc3cc(C(F)(F)P(=O)(O)O)ccc3[nH]2)C1 [Compound 168, ((2-(((5S,8S,10aR)-3-acetyl-8-((4-cyanophenyl)(methyl)carbamoyl)-6-oxodecahydropyrrolo[1,2-a][1,5]diazocin-5-yl)carbamoyl)-1H-indol-5-yl)difluoromethyl)phosphonic acid] |
| 300 to 3000 | 1000 to 10000 | COCCOc1ccc(N(C)C(=O)[C@@H]2CC[C@@H]3CCN(C(C)=O)C[C@H](NC(=O)c4cc5cc(C(F)(F)P(=O)(O)O)ccc5[nH]4)C(=O)N32)cc1 [Compound 137, ((2-(((5S,8S,10aR)-3-acetyl-8-((4-(2-methoxyethoxy)phenyl)(methyl)carbamoyl)-6-oxodecahydropyrrolo[1,2-a][1,5]diazocin-5-yl)carbamoyl)-1H-indol-5-yl)difluoromethyl)phosphonic acid] |
| 300 to 3000 | 100 to 1000 | CNC(=O)Cc1cc(-c2ccccc2)ccc1NC(=O)[C@@H]1CC[C@@H]2CCN(C(C)=O)C[C@H](NC(=O)c3cc4cc(C(F)(F)P(=O)(O)O)ccc4s3)C(=O)N21 [Compound 198, ((2-(((5S,8S,10aR)-3-acetyl-8-((3-(2-(methylamino)-2-oxoethyl)-[1,1′-biphenyl]-4-yl)carbamoyl)-6-oxodecahydrpyrrolo[1,2-a][1,5]diazocin-5-yl)carbamoyl)benzo[b]thiophen-5-yl)difluoromethyl)phosphonic acid] |
| 300 to 3000 | 100 to 1000 | CC(=O)N1CC[C@H]2CC[C@@H](C(=O)N3CC(C#N)C4(C3)C(=O)Nc3ccccc34)N2C(=O)[C@@H](NC(=O)c2cc3cc(C(F)(F)P(=O)(O)O)ccc3s2)C1 (stereo partly drawn) [Compound 61, ((2-(((5S,8S,10aR)-3-acetyl-8-(4′-cyano-2-oxospiro[indoline-3,3′-pyrrolidine]-1′-carbonyl)-6-oxodecahydropyrrolo[1,2-a][1,5]diazocin-5-yl)carbamoyl)benzo[b]thiophen-5-yl)difluoromethyl)phosphonic acid] |
| ≤ 300 | 1000 to 10000 | CC(=O)N1CC[C@H]2CC[C@@H](C(=O)N(C)c3ccc(C(C)(C)C)cc3)N2C(=O)[C@@H](NC(=O)c2cc3cc(C(F)(F)P(=O)(O)O)ccc3[nH]2)C1 [Compound 136, ((2-(((5S,8S,10aR)-3-acetyl-8-((4-(tert-butyl)phenyl)(methyl)carbamoyl)-6-oxodecahydropyrrolo[1,2-a][1,5]diazocin-5-yl)carbamoyl)-1H-indol-5-yl)difluoromethyl)phosphonic acid] |
| 300 to 3000 | > 10000 | CC(=O)N1CC[C@H]2CC[C@@H](C(=O)N(C)c3ccccc3)N2C(=O)[C@@H](NC(=O)c2ccc3ccc(C(F)P(=O)(O)O)cc3c2)C1 (stereo partly drawn) [Compound 14, ((7-(((5S,8S,10aR)-3-acetyl-8-(methyl(phenyl)carbamoyl)-6-oxodecahydropyrrolo[1,2-a][1,5]diazocin-5-yl)carbamoyl)naphthalen-2-yl)fluoromethyl)phosphonic acid] |
| 300 to 3000 | 100 to 1000 | NC(=O)[C@@H]1CN(C(=O)[C@@H]2CC[C@@H]3CCN(CC(F)F)C[C@H](NC(=O)c4cc5cc(C(F)(F)P(=O)(O)O)ccc5s4)C(=O)N32)C[C@H]1c1ccccc1 (single isomer, unassigned) [Compound 245, ((2-(((5S,8S,10aR)-8-((3S,4R or 3R,4S)-3-carbamoyl-4-phenylpyrrolidine-1-carbonyl)-3-(2,2-difluoroethyl)-6-oxodecahydropyrrolo[1,2-a][1,5]diazocin-5-yl)carbamoyl)benzo[b]thiophen-5-yl)difluoromethyl)phosphonic acid] |
| 300 to 3000 | 1000 to 10000 | COc1ccc(N(C)C(=O)[C@@H]2CC[C@@H]3CCN(C(C)=O)C[C@H](NC(=O)c4cc5cc(C(F)(F)P(=O)(O)O)ccc5[nH]4)C(=O)N32)cc1 [Compound 166, ((2-(((5S,8S,10aR)-3-acetyl-8-((4-methoxyphenyl)(methyl)carbamoyl)-6-oxodecahydropyrrolo[1,2-a][1,5]diazocin-5-yl)carbamoyl)-1H-indol-5-yl)difluoromethyl)phosphonic acid] |
| 300 to 3000 | 100 to 1000 | CC(=O)N1CC[C@H]2CC[C@@H](C(=O)Nc3ccc(-c4ccccc4)c([N+](=O)[O-])c3)N2C(=O)[C@@H](NC(=O)c2cc3cc(C(F)(F)P(=O)(O)O)ccc3s2)C1 [Compound 179, ((2-(((5S,8S,10aR)-3-acetyl-8-((2-nitro-[1,1′-biphenyl]-4-yl)carbamoyl)-6-oxodecahydropyrrolo[1,2-a][1,5]diazocin-5-yl)carbamoyl)benzo[b]thiophen-5-yl)difluoromethyl)phosphonic acid] |
| 3000 to 30000 | ≤ 100 | O=C(N[C@H]1CSCC[C@H]2CC[C@@H](C(=O)N3CC(c4cccnc4)C3)N2C1=O)c1cc2cc(C(F)(F)P(=O)(O)O)ccc2s1 [Compound 405, (difluoro(2-(((5R,8S, 10aR)-6-oxo-8-(3-(pyridin-3-yl)azetidine-1-carbonyl)octahydro-4H-pyrrolo[2,1-d][1,5]thiazocin-5-yl)carbamoyl)benzo[b]thiophen-5-yl)methyl) phosphonic acid] |
